According to US20240382629A1, “HETEROBIVALENT AND HOMOBIVALENT AGENTS TARGETING FIBROBLAST ACTIVATION PROTEIN ALPHA AND/OR PROSTATE-SPECIFIC MEMBRANE ANTIGEN” (The Johns Hopkins University, priority 2021, published 2024):
Several values for one entry are separate records, joined by “and”; a condition that tells them apart may be missing. Equal entries are not always repeated.

Tested on: U87 tumor
Test: Biodistribution ([^18F]JHU1221823), carrier / specific activity study
Type: in vivo, mouse
Conditions: individual mouse
Description: Biodistribution of Representative Compounds

[1] = + 0.05 nmole carrier, 60 min post injection
[2] = + 0.1 nmole carrier, 60 min post injection
[3] = + 0.25 nmole carrier, 60 min post injection
[4] = NOD/SCID, U87 tumor, Carrier 350 (350 mCi/μmol), 60 min post injection
[5] = NOD/SCID, U87 tumor, Carrier 700, 60 min post injection

Q: What does the source list for `N#C[C@@H]1CCCN1C(=O)CNC(=O)c1ccnc2ccc(OCCCNC(=O)CCOCCOCCOCCOCCNC(=O)[C@H](CCCCNC(=O)c3ccc([18F])nc3)NC(=O)CN3CCN(CC(=O)O)CCN(CC(=O)O)CCN(CC(=O)O)CC3)cc12` [[^18F]JHU1221823]?
A: Bladder % ID/g (+ 0.01 nmole carrier): 1.82 % ID/g and 2.18 % ID/g; Blood % ID/g (+ 0.01 nmole carrier): 11.19 % ID/g and 11.39 % ID/g; Brain % ID/g (+ 0.01 nmole carrier): 0.32 % ID/g and 0.28 % ID/g; Fat % ID/g (+ 0.01 nmole carrier): 0.23 % ID/g and 0.44 % ID/g; Femur % ID/g (+ 0.01 nmole carrier): 3.05 % ID/g and 4.01 % ID/g; Heart % ID/g (+ 0.01 nmole carrier): 4.74 % ID/g and 4.50 % ID/g; Kidney % ID/g (+ 0.01 nmole carrier): 2.82 % ID/g and 3.11 % ID/g; Large intestine % ID/g (+ 0.01 nmole carrier): 1.60 % ID/g and 1.63 % ID/g; Liver % ID/g (+ 0.01 nmole carrier): 2.78 % ID/g and 3.40 % ID/g; Lung % ID/g (+ 0.01 nmole carrier): 6.08 % ID/g and 6.21 % ID/g; Muscle % ID/g (+ 0.01 nmole carrier): 2.03 % ID/g and 1.73 % ID/g; Pancreas % ID/g (+ 0.01 nmole carrier): 4.01 % ID/g and 4.14 % ID/g; Salivary gland % ID/g (+ 0.01 nmole carrier): 7.47 % ID/g and 7.48 % ID/g; Small intestine % ID/g (+ 0.01 nmole carrier): 2.22 % ID/g and 2.17 % ID/g; Spleen % ID/g (+ 0.01 nmole carrier): 1.88 % ID/g and 2.13 % ID/g; Stomach % ID/g (+ 0.01 nmole carrier): 1.33 % ID/g and 1.65 % ID/g; Tumor % ID/g (+ 0.01 nmole carrier): 1.88 % ID/g and 2.86 % ID/g; Bladder % ID/g [1]: 6.14 % ID/g and 2.43 % ID/g; Blood % ID/g [1]: 7.42 % ID/g and 7.67 % ID/g; Brain % ID/g [1]: 0.20 % ID/g and 0.21 % ID/g; Fat % ID/g [1]: 0.94 % ID/g and 0.61 % ID/g; Femur % ID/g [1]: 2.83 % ID/g and 3.67 % ID/g; Heart % ID/g [1]: 3.03 % ID/g and 3.04 % ID/g; Kidney % ID/g [1]: 2.02 % ID/g and 2.55 % ID/g; Large intestine % ID/g [1]: 1.48 % ID/g and 1.58 % ID/g; Liver % ID/g [1]: 1.92 % ID/g and 2.34 % ID/g; Lung % ID/g [1]: 4.05 % ID/g and 4.16 % ID/g; Muscle % ID/g [1]: 1.47 % ID/g and 2.20 % ID/g; Pancreas % ID/g [1]: 4.01 % ID/g and 6.69 % ID/g; Salivary gland % ID/g [1]: 10.22 % ID/g and 11.63 % ID/g; Small intestine % ID/g [1]: 1.46 % ID/g and 2.18 % ID/g; Spleen % ID/g [1]: 1.37 % ID/g and 1.62 % ID/g; Stomach % ID/g [1]: 1.07 % ID/g and 1.48 % ID/g; Tumor % ID/g [1]: 2.59 % ID/g and 4.26 % ID/g; Bladder % ID/g [2]: 1.62 % ID/g and 1.87 % ID/g; Blood % ID/g [2]: 3.88 % ID/g and 4.32 % ID/g; Brain % ID/g [2]: 0.08 % ID/g and 0.17 % ID/g; Fat % ID/g [2]: 2.17 % ID/g and 1.13 % ID/g; Femur % ID/g [2]: 3.44 % ID/g and 4.00 % ID/g; Heart % ID/g [2]: 1.80 % ID/g and 1.87 % ID/g; Kidney % ID/g [2]: 2.03 % ID/g and 2.00 % ID/g; Large intestine % ID/g [2]: 2.91 % ID/g and 1.79 % ID/g; Liver % ID/g [2]: 1.01 % ID/g and 1.30 % ID/g; Lung % ID/g [2]: 2.31 % ID/g and 2.83 % ID/g; Muscle % ID/g [2]: 1.69 % ID/g and 2.25 % ID/g; Pancreas % ID/g [2]: 4.18 % ID/g and 5.17 % ID/g; Salivary gland % ID/g [2]: 7.28 % ID/g and 9.35 % ID/g; Small intestine % ID/g [2]: 1.66 % ID/g and 1.63 % ID/g; Spleen % ID/g [2]: 0.91 % ID/g and 1.01 % ID/g; Stomach % ID/g [2]: 0.89 % ID/g and 1.12 % ID/g; Tumor % ID/g [2]: 5.48 % ID/g and 4.73 % ID/g; Bladder % ID/g [3]: 3.04 % ID/g and 1.98 % ID/g; Blood % ID/g [3]: 1.76 % ID/g and 2.03 % ID/g; Brain % ID/g [3]: 0.08 % ID/g; Fat % ID/g [3]: 0.65 % ID/g and 0.37 % ID/g; Femur % ID/g [3]: 3.97 % ID/g and 4.56 % ID/g; Heart % ID/g [3]: 0.91 % ID/g; Kidney % ID/g [3]: 1.70 % ID/g and 2.15 % ID/g; Large intestine % ID/g [3]: 0.62 % ID/g and 0.68 % ID/g; Liver % ID/g [3]: 0.73 % ID/g and 0.77 % ID/g; Lung % ID/g [3]: 1.17 % ID/g and 1.57 % ID/g; Muscle % ID/g [3]: 1.32 % ID/g and 1.19 % ID/g; Pancreas % ID/g [3]: 2.11 % ID/g and 1.42 % ID/g; Salivary gland % ID/g [3]: 3.78 % ID/g and 2.85 % ID/g; Small intestine % ID/g [3]: 0.75 % ID/g and 1.07 % ID/g; Spleen % ID/g [3]: 0.44 % ID/g and 0.48 % ID/g; Stomach % ID/g [3]: 0.61 % ID/g and 0.77 % ID/g; Tumor % ID/g [3]: 3.93 % ID/g and 3.11 % ID/g; Bladder % ID/g [4]: 2.09 % ID/g and 6.57 % ID/g; Blood % ID/g [4]: 3.99 % ID/g and 4.29 % ID/g; Brain % ID/g [4]: 0.10 % ID/g and 0.09 % ID/g; Fat % ID/g [4]: 0.89 % ID/g and 0.82 % ID/g; Femur % ID/g [4]: 3.67 % ID/g and 3.18 % ID/g; Heart % ID/g [4]: 2.25 % ID/g and 2.02 % ID/g; Kidney % ID/g [4]: 2.00 % ID/g and 2.27 % ID/g; Large intestine % ID/g [4]: 2.18 % ID/g and 1.97 % ID/g; Liver % ID/g [4]: 1.71 % ID/g and 1.81 % ID/g; Lung % ID/g [4]: 2.51 % ID/g and 2.98 % ID/g; Muscle % ID/g [4]: 2.02 % ID/g and 2.04 % ID/g; Pancreas % ID/g [4]: 10.66 % ID/g and 9.69 % ID/g; Salivary gland % ID/g [4]: 9.63 % ID/g and 9.35 % ID/g; Small intestine % ID/g [4]: 2.86 % ID/g and 1.91 % ID/g; Spleen % ID/g [4]: 1.60 % ID/g and 1.01 % ID/g; Stomach % ID/g [4]: 1.47 % ID/g; Tumor % ID/g [4]: 8.22 % ID/g and 9.06 % ID/g; Bladder % ID/g [5]: 8.20 % ID/g; Blood % ID/g [5]: 5.82 % ID/g; Brain % ID/g [5]: 0.16 % ID/g; Fat % ID/g [5]: 0.90 % ID/g; Femur % ID/g [5]: 2.41 % ID/g; Heart % ID/g [5]: 3.48 % ID/g; Kidney % ID/g [5]: 2.45 % ID/g; Large intestine % ID/g [5]: 2.26 % ID/g
